Values of other authors, collected in PubChem BioAssay AID1259409 (Chemical Carcinogenesis Research Information System (CCRIS), 2018).

Tested on: rodent chemically induced tumor inhibition, incidence and multiplicity
Assay: CCRIS tumor inhibitor studies
Conditions: Promoter: NONE USED

C[C@]12CC[C@H](O)CC1=CC[C@@H]1[C@@H]2CC[C@]2(C)C(=O)CC[C@@H]12
tumour outcome (control, treated, inhibition, significance) (Carcinogen: 1,2-DIMETHYLHYDRAZINE, 540-73-8, Dose [Inhibitor]: 0.6% IN DIET BEGINNING 2 WK PRIOR TO 1ST CARCINOGEN DOSE FOR DURATION OF EXPERIMENT (STUDY DURATION: 42 WK), Route [Inhibitor]: ORAL, Species: MOUSE, Strain/Sex: BALB/C/FEMALE, Target Tissue: Type of Lesion: ANUS: SQUAMOUS CELL CARCINOMA, FIBROSARCOMA, Dose [Carcinogen]: 21 MG/KG 1/WK FOR 20 WK): 38%, 50%, -32%, not calculated | tumour outcome (control, treated, inhibition, significance) (Carcinogen: 1,2-DIMETHYLHYDRAZINE, 540-73-8, Dose [Inhibitor]: 0.6% IN DIET BEGINNING 2 WK PRIOR TO 1ST CARCINOGEN DOSE FOR DURATION OF EXPERIMENT (STUDY DURATION: 42 WK), Route [Inhibitor]: ORAL, Species: MOUSE, Strain/Sex: BALB/FEMALE, Target Tissue: Type of Lesion: ANUS: SQUAMOUS CELL CARCINOMA, FIBROSARCOMA, Dose [Carcinogen]: 21 MG/KG 1/WK FOR 20 WK): 26/151 (17%), 0/141 (0%), 100%, p<0.001 | tumour outcome (control, treated, inhibition, significance) (Carcinogen: 7,12-DIMETHYLBENZ[A]ANTHRACENE, 57-97-6, Dose [Inhibitor]: 0.6% IN DIET BEGINNING 9 D POST CARCINOGEN DOSE (STUDY DURATION: 14 WK AFTER AGENT TREATMENT), Route [Inhibitor]: ORAL, Species: MOUSE, Strain/Sex: STRAIN-A/FEMALE, Target Tissue: Type of Lesion: LUNG: TUMOR, Dose [Carcinogen]: 0.5 MG IN 0.2 ML SESAME OIL ONCE): 28/28 (100%), 20/23 (87%), 13%, not calculated | tumour outcome (control, treated, inhibition, significance) (Carcinogen: 7,12-DIMETHYLBENZ[A]ANTHRACENE, 57-97-6, Dose [Inhibitor]: 100 UG IN 0.2 ML ACETONE 1 HR PRIOR TO EACH CARCINOGEN DOSE (STUDY DURATION: 290 D), Route [Inhibitor]: DERMAL, Species: MOUSE, Strain/Sex: CD-1/FEMALE, Target Tissue: Type of Lesion: SKIN: CARCINOMA, Dose [Carcinogen]: 200 NMOL AT 6-7 WK OF AGE THEN 100 NMOL 1/WK 2 WK LATER): 14/28 (50%), 5/26 (19%), 62%, p<0.001 | tumour outcome (control, treated, inhibition, significance) (Carcinogen: 7,12-DIMETHYLBENZ[A]ANTHRACENE, 57-97-6, Dose [Inhibitor]: 400 UG IN 0.2 ML ACETONE 1 HR PRIOR TO EACH CARCINOGEN DOSE (STUDY DURATION: 290 D), Route [Inhibitor]: DERMAL, Species: MOUSE, Strain/Sex: CD-1/FEMALE, Target Tissue: Type of Lesion: SKIN: CARCINOMA, Dose [Carcinogen]: 200 NMOL AT 6-7 WK OF AGE THEN 100 NMOL 1/WK 2 WK LATER): 14/28 (50%), 3/27 (11%), 78%, p<0.001 | tumour outcome (control, treated, inhibition, significance) (Carcinogen: AZOXYMETHANE, 25843-45-2, Dose [Inhibitor]: 0, 0.5% DIET BEGINNING 1 DAY AFTER LAST CARCINOGEN DOSE AND CONTINUING FOR DURATION OF STUDY (STUDY DURATION: 18 WK), Route [Inhibitor]: ORAL, Species: RAT, Strain/Sex: F344/MALE, Target Tissue: Type of Lesion: COLON: TUMOR, Dose [Carcinogen]: 10 MG/KG 1/WK FOR 10 WK): 10/15 (67%), 7/15 (47%), 30%, not significant | tumour outcome (control, treated, inhibition, significance) (Carcinogen: AZOXYMETHANE, 25843-45-2, Dose [Inhibitor]: 0, 0.5% DIET BEGINNING 1 DAY AFTER LAST CARCINOGEN DOSE AND CONTINUING FOR DURATION OF STUDY (STUDY DURATION: 18 WK), Route [Inhibitor]: ORAL, Species: RAT, Strain/Sex: F344/MALE, Target Tissue: Type of Lesion: SMALL INTESTINE: TUMOR, Dose [Carcinogen]: 10 MG/KG 1/WK FOR 10 WK): 10/15 (67%), 8/15 (53%), 21%, not significant
